Measured values published in BindingDB's records for doi:10.1074/jbc.M113.521955 (Albert Einstein College of Medicine, 2013).

Columns and labels:
[1] = biological target: T1, Orotate phosphoribosyltransferase (Plasmodium falciparum (isolate 3D7), UniProt Q8I3Y0); assay: Inhibition Assay; conditions: pH 8; 25 °C
T1 sequence (Q8I3Y0 whole entry): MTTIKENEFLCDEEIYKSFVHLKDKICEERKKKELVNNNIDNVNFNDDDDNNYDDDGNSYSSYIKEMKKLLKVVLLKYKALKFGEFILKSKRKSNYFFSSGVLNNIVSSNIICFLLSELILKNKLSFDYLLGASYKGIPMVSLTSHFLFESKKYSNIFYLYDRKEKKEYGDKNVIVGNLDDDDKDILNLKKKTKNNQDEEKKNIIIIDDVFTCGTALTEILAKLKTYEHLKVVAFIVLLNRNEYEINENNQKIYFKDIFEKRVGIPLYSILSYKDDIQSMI
Protocol: (§1) In all cases, the inhibitor concentration was at least 10 times the enzyme concentration. Reaction rates were monitored through the absorbance increase at 295 nm to give an extinction coefficient of 3.67 mM-1 cm-1 [Abdo et al., Org. Lett., 12:2982-2985].

[2] = biological target: T2, Uridine 5'-monophosphate synthase (Homo sapiens, UniProt P11172); assay: Inhibition Assay; conditions: pH 8; 25 °C
T2 sequence (P11172 whole entry): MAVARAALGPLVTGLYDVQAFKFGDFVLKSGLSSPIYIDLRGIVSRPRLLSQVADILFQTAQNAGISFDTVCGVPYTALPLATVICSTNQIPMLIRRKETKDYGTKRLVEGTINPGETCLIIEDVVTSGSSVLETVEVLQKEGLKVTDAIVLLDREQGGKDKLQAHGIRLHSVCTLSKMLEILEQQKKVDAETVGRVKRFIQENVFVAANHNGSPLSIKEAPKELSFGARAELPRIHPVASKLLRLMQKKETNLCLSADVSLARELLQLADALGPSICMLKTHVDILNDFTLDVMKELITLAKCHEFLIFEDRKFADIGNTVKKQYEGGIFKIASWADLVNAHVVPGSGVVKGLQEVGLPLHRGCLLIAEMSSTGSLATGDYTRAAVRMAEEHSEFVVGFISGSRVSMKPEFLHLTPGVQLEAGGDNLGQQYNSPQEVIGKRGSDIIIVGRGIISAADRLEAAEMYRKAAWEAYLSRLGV
Protocol: as §1

| Compound | Ki [1] [nM] | Ki [2] [nM] |
| --- | --- | --- |
| O=[N+]([O-])c1ccc(O[C@@H]2O[C@H](CO)C(O)C2O)cc1 (stereo not given in full) [OPRT inhibitor, 1] | 190 | 120 |
| O=[N+]([O-])c1ccc(O[C@@H]2O[C@H](COP(=O)(O)O)C(O)C2O)cc1 (stereo not given in full) [OPRT inhibitor, 2] | 40 | 41 |
| O=c1[nH]c(=O)n(C[C@@H]2N[C@H](CO)C(O)C2O)cc1Br (stereo not given in full) [OPRT inhibitor, 3] | 350 | 530 |
| O=c1[nH]c(=O)n(C[C@@H]2N[C@H](COP(=O)(O)O)C(O)C2O)cc1Br (stereo not given in full) [OPRT inhibitor, 4] | 370 | 200 |
| N#Cc1cc(=O)[nH]c(=O)n1C[C@@H]1N[C@H](CO)C(O)C1O (stereo not given in full) [OPRT inhibitor, 5] | 300 | 360 |
| N#Cc1cc(=O)[nH]c(=O)n1C[C@@H]1N[C@H](COP(=O)(O)O)C(O)C1O (stereo not given in full) [OPRT inhibitor, 6] | 350 | 140 |
| O=C1c2cc(=O)[nH]c(=O)n2C[C@H]2C(O)C(O)[C@@H](CO)N12 (stereo not given in full) [OPRT inhibitor, 7] | 270 | 110 |
| O=C1c2cc(=O)[nH]c(=O)n2C[C@H]2C(O)C(O)[C@@H](COP(=O)(O)O)N12 (stereo not given in full) [OPRT inhibitor, 8] | 170 | 90 |
| O=c1[nH]c(=O)n(CCN2CC(O)C(O)[C@H]2CO)cc1Br (stereo not given in full) [OPRT inhibitor, 9] | 270 | 80 |
| O=C(O)c1cc(=O)[nH]c(=O)n1CCN1CC(O)C(O)[C@H]1CO (stereo not given in full) [OPRT inhibitor, 10] | 690 | 290 |
| O=c1[nH]c(=O)n(CCN2CC(O)[C@@H](CO)C2)cc1Br (stereo not given in full) [OPRT inhibitor, 11] | 1300 | 520 |
| O=C(O)c1ccncc1[C@@H]1N[C@H](COP(=O)(O)O)C(O)C1O (stereo not given in full) [OPRT inhibitor, 12] | 15500 | 4300 |
| O=C(O)c1[nH]c(=O)[nH]c(=O)c1CN1CCCC1 [OPRT inhibitor, 13] | 470 | 250 |
| O=C(O)c1[nH]c(=O)[nH]c(=O)c1CN1CC(O)[C@@H](CO)C1 (stereo not given in full) [OPRT inhibitor, 14] | 220 | 83 |
| O=C(O)c1[nH]c(=O)[nH]c(=O)c1CN1CC(O)[C@@H](COP(=O)(O)O)C1 (stereo not given in full) [OPRT inhibitor, 15] | 500 | 240 |
| O=[N+]([O-])c1ccc([C@@H]2N[C@H](CO)C(O)C2O)cc1 (stereo not given in full) [OPRT inhibitor, 16] | 480 | 230 |
| O=[N+]([O-])c1ccc(CN2CC(O)[C@@H](CO)C2)cc1 (stereo not given in full) [OPRT inhibitor, 17] | 750 | 200 |
| O=[N+]([O-])c1ccc(CCN2CC(O)[C@@H](CO)C2)cc1 (stereo not given in full) [OPRT inhibitor, 18] | 570 | 230 |
| O=[N+]([O-])c1ccc(CNC(CO)CO)cc1 [OPRT inhibitor, 19] | 500 | 150 |
| O=[N+]([O-])c1ccc(CCNC(CO)CO)cc1 [OPRT inhibitor, 20] | 510 | 120 |
